Columns and labels:
[1] = tested on: cucumber downy mildew; test: protectant activity in vivo against cucumber downy mildew
[2] = tested on: Green peach aphids (Myzus Persicae Sulzer); test: bioactivity test against green peach aphid, airbrush foliar spray; type: in vivo
Summary of the method: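 Aphids (15-30 per cabbage leaf disc) on moist filter paper were airbrush-sprayed at 10 psi, 0.5 mL, with compound from acetone:methanol (1:1) diluted in water with 0.1% tween 80. Held at 25±1 C, 60±5% RH; survivors counted after 48 hrs to give death rates.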

[3] = tested on: carmine spider mite; test: bioactivity test against carmine spider mite, airbrush spray; type: in vivo; settings: for control against carmine spider mite: mortality after 72 hrs
Summary of the method: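 Broadbean seedlings infested with adult mites were sprayed with compound (acetone/methanol stock diluted in 0.1% Tween 80 water) by airbrush at 0.7 kg/cm^2, 0.5 ml. Three replicates were run. Mortality was scored after 72 hrs.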

[4] = tested on: rice blast; test: microbe, parasite or virus in culture; type: cell-based; settings: Pyricularia oryzae, read-out: inhibition rate against rice blast, 25 ppm, in vitro
[5] = tested on: wheat powdery mildew; test: protectant activity in vivo against wheat powdery mildew
[6] = tested on: corn rust; test: protectant activity in vivo against corn rust; settings: for pest or weed control at 0.4 µg/mL: read-out: control effect against corn rust (%), 0.4 mg/L; for pest or weed control at 0.4 µg/mL / pest or weed control at 1.6 µg/mL / pest or weed control at 6.25 µg/mL / pest or weed control at 25 µg/mL / pest or weed control at 100 µg/mL / pest or weed control at 400 µg/mL: protectant activity; for pest or weed control at 1.6 µg/mL: read-out: control effect against corn rust (%), 1.6 mg/L; for pest or weed control at 6.25 µg/mL: read-out: control effect against corn rust (%), 6.25 mg/L; for pest or weed control at 25 µg/mL: read-out: control effect against corn rust (%), 25 mg/L; for pest or weed control at 100 µg/mL: read-out: control effect against corn rust (%), 100 mg/L; for pest or weed control at 400 µg/mL: read-out: control effect against corn rust (%), 400 mg/L
[7] = tested on: Diamond back moth; test: insecticidal activity against diamond back moth, airbrush spray; type: in vivo
Summary of the method: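 Airbrush leaf-disc spray test: both faces of 2 cm cabbage discs received 0.5 ml of test solution at 0.7 kg/cm^2. Solutions were made in acetone:methanol (1:1) and brought to concentration with 0.1% Tween 80 in water. Ten second-instar larvae per disc, triplicates, were held at 25° C and 60˜70% R.H., with mortality recorded at 72 hrs.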

[8] = tested on: armyworm; test: bioactivity test against armyworm, airbrush spray; type: in vivo; settings: 72 h, read-out: Insecticidal activity against armyworm (%)

## CCc1ncnc(NCCc2ccc(Oc3ccc(C(F)(F)F)cn3)cc2)c1Cl [Compound I-254]
[1]; 100 ppm
  protectant activity against cucumber downy mildew in vivo: 100%
[1]; 400 ppm
  protectant activity against cucumber downy mildew in vivo: 100%
[1]; Cucumis sativus, 168 h, read-out: protectant activity against cucumber downy mildew in vivo, 50 ppm
  pest or weed control at 50 ppm: 100%
[2]; 1.25 mg/L, contrastive test
  Insecticidal activity against peach aphid (%): 100%
[2]; 2.5 mg/L, contrastive test
  Insecticidal activity against peach aphid (%): 100%
[2]; 5 mg/L, contrastive test
  Insecticidal activity against peach aphid (%): 100%
[2]; 10 mg/L, contrastive test
  Insecticidal activity against peach aphid (%): 100%
[2]; 100 mg/L, contrastive test
  Insecticidal activity against peach aphid (%): 100%
[2]; 600 mg/L, contrastive test
  Insecticidal activity against peach aphid (%): 100%
[2]; 5 ppm, death rate after 48 hrs
  control (test results against green peach aphid): 100%
[2]; 10 ppm, death rate after 48 hrs
  control (test results against green peach aphid): 100%
[2]; 100 ppm, death rate after 48 hrs
  control (test results against green peach aphid): 100%
[2]; 600 ppm, death rate after 48 hrs
  control (test results against green peach aphid): 100%
[2]; Myzus persicae, foliar, 48 h, 2.5 ppm, death rate after 48 hrs
  pest or weed control at 2.5 ppm: 100%
[3]; 2.5 mg/L
  Insecticidal activity against carmine spider mite (% ): 79%
[3]; 5 mg/L
  Insecticidal activity against carmine spider mite (% ): 93%
[3]; 10 mg/L, contrastive test
  Insecticidal activity against carmine spider mite (% ): 97%
[3]; 100 mg/L, contrastive test
  Insecticidal activity against carmine spider mite (% ): 100%
[3]; 600 mg/L, contrastive test
  Insecticidal activity against carmine spider mite (% ): 100%
[3]; 10 ppm
  control against carmine spider mite: 100%
[3]; 100 ppm
  control against carmine spider mite: 100%
[3]; 600 ppm
  control against carmine spider mite: 100%
[4]
  inhibition at 25 ppm: 80 to 99%
[5]; 6.25 mg/L, protectant activity
  control effect against wheat powdery mildew (%): 100%
[5]; 25 mg/L, protectant activity
  control effect against wheat powdery mildew (%): 100%
[5]; 100 mg/L, protectant activity
  control effect against wheat powdery mildew (%): 100%
[5]; 400 mg/L, protectant activity
  control effect against wheat powdery mildew (%): 100%
[5]; 100 ppm
  protectant activity against wheat powdery mildew in vivo: 100%
[5]; 400 ppm
  protectant activity against wheat powdery mildew in vivo: 100%
[5]; Triticum aestivum, 168 h, read-out: control effect against wheat powdery mildew (%), 1.6 mg/L, protectant activity
  pest or weed control at 1.6 µg/mL: 20%
[6]; 100 ppm
  protectant activity against corn rust in vivo: 100%
[6]; 400 ppm
  protectant activity against corn rust in vivo: 100%
[6]; Zea mays, 168 h
  pest or weed control at 0.4 µg/mL: 40%
  pest or weed control at 1.6 µg/mL: 95%
  pest or weed control at 6.25 µg/mL: 100%
  pest or weed control at 25 µg/mL: 100%
  pest or weed control at 100 µg/mL: 100%
  pest or weed control at 400 µg/mL: 100%
[6]; Zea mays, 168 h, read-out: protectant activity against corn rust in vivo, 6.25 ppm
  pest or weed control at 6.25 ppm: 100%
[6]; Zea mays, 168 h, read-out: protectant activity against corn rust in vivo, 25 ppm
  pest or weed control at 25 ppm: 100%
[7]; 600 ppm, mortality after 72 hrs
  control (test results against diamond back moth): 100%
[7]; 72 h, 100 ppm, mortality after 72 hrs, read-out: control (test results against diamond back moth)
  pest or weed control at 100 ppm: 100%

## CCc1ncnc(NC(C)c2ccc(Oc3ccc(C(F)(F)F)cn3)cc2)c1Cl (stereo not drawn) [CK40, reference compound]
[2]; Myzus persicae, foliar, 48 h, 2.5 mg/L, contrastive test, read-out: Insecticidal activity against peach aphid (%)
  pest or weed control at 2.5 µg/mL: 0%
[2]; Myzus persicae, foliar, 48 h, 5 mg/L, contrastive test, read-out: Insecticidal activity against peach aphid (%)
  pest or weed control at 5 µg/mL: 27%
[2]; Myzus persicae, foliar, 48 h, 10 mg/L, contrastive test, read-out: Insecticidal activity against peach aphid (%)
  pest or weed control at 10 µg/mL: 72%
[2]; Myzus persicae, foliar, 48 h, 100 mg/L, contrastive test, read-out: Insecticidal activity against peach aphid (%)
  pest or weed control at 100 µg/mL: 100%
[2]; Myzus persicae, foliar, 48 h, 600 mg/L, contrastive test, read-out: Insecticidal activity against peach aphid (%)
  pest or weed control at 600 µg/mL: 100%
[4]
  inhibition at 25 ppm: < 50%
[6]; Zea mays, 168 h
  pest or weed control at 0.4 µg/mL: 0%
  pest or weed control at 1.6 µg/mL: 30%
  pest or weed control at 6.25 µg/mL: 70%
  pest or weed control at 25 µg/mL: 90%
  pest or weed control at 100 µg/mL: 100%
  pest or weed control at 400 µg/mL: 100%
[7]; 72 h, 10 mg/L
  pest or weed control at 10 µg/mL: 13%
[7]; 72 h, 100 mg/L
  pest or weed control at 100 µg/mL: 29%
[7]; 72 h, 600 mg/L
  pest or weed control at 600 µg/mL: 100%
[8]; 10 mg/L
  pest or weed control at 10 µg/mL: 0%
[8]; 100 mg/L
  pest or weed control at 100 µg/mL: 6%
[8]; 600 mg/L
  pest or weed control at 600 µg/mL: 43%
